Test results taken from ChEMBL document CHEMBL2086378, “Eudesmane-type sesquiterpenoid and guaianolides from Kandelia candel in a screening program for compounds to overcome TRAIL resistance” (2012).

Columns and labels:
Format in all cases: functional
AGS [1] = assay: Cytotoxicity against TRAIL-resistant human AGS cells assessed as inhibition of cell viability at 80 uM after 24 hrs by fluorescence assay in presence of 100 ng/ml TRAIL relative to in absence of TRAIL
AGS [2] = assay: Cytotoxicity against TRAIL-resistant human AGS cells assessed as inhibition of cell viability at 50 uM after 24 hrs by fluorescence assay in presence of 100 ng/ml TRAIL relative to in absence of TRAIL
AGS [3] = assay: Cytotoxicity against TRAIL-resistant human AGS cells assessed as inhibition of cell viability at 17.5 uM after 24 hrs by fluorescence assay in presence of 100 ng/ml TRAIL relative to in absence of TRAIL
AGS [4] = assay: Cytotoxicity against TRAIL-resistant human AGS cells assessed as inhibition of cell viability at 10 uM after 24 hrs by fluorescence assay in presence of 100 ng/ml TRAIL relative to in absence of TRAIL

## C=C(C(=O)OC)[C@@H]1CC[C@@]2(C)C=CC(=O)C(C)=C2C1
AGS [1]
  inhibition (INH): 29%

## CC(=O)O[C@H]1CC(C)=C2C(=O)C=C(C)[C@@H]2[C@H]2OC(=O)[C@@H](C)[C@@H]21
AGS [2]
  inhibition (INH): 23%

## O=c1cc(-c2ccc(O)c(O)c2)oc2cc(O)cc(O)c12 [LUTEOLIN]
AGS [3]
  inhibition (INH): 48%

## C/C=C(\C)C(=O)O[C@H]1CC(C)=C2C(=O)C=C(C)[C@@H]2[C@H]2OC(=O)[C@@H](C)[C@@H]21 [MEHIRUGIN B]
AGS [4]
  inhibition (INH): 27%
